Test results: the NIST ThermoML archive (doi:10.1021/je700260f)

Conditions: 283.14 K, Liquid, Vibrating tube method

FC(C(F)(F)F)C(F)(F)F [1,1,1,2,3,3,3-heptafluoropropane]
Conditions | mass density [kg/m3]
5782 kPa | 1478.8
5822 kPa | 1478.8
5855 kPa | 1479
5879 kPa | 1479.1
5908 kPa | 1479.3
5934 kPa | 1479.4
5968 kPa | 1479.6
6005 kPa | 1479.8
6027 kPa | 1480
6058 kPa | 1480
6101 kPa | 1480.2
6135 kPa | 1480.5
6165 kPa | 1480.5
6229 kPa | 1480.8
6973 kPa | 1484.5
7472 kPa | 1486.7
7512 kPa | 1487.1
7539 kPa | 1487.1
7568 kPa | 1487.2
7596 kPa | 1487.1
7625 kPa | 1487.3
7646 kPa | 1487.8
7680 kPa | 1487.8
7705 kPa | 1487.9
7731 kPa | 1488
7762 kPa | 1488.1
7796 kPa | 1488.3
7826 kPa | 1488.4
7851 kPa | 1488.5
7877 kPa | 1488.7
7906 kPa | 1488.9
7932 kPa | 1488.9
7965 kPa | 1489
7991 kPa | 1489.2
8025 kPa | 1489.4
8050 kPa | 1489.5
8079 kPa | 1489.7
8109 kPa | 1489.6
8138 kPa | 1489.9
8164 kPa | 1490.1
8197 kPa | 1490
8223 kPa | 1490.2
8257 kPa | 1490.4
8291 kPa | 1490.6
8322 kPa | 1490.7
10618 kPa | 1500.7
10644 kPa | 1500.8
10678 kPa | 1500.9
10708 kPa | 1501.2
10744 kPa | 1501.3
11092 kPa | 1502.7
11124 kPa | 1502.9
11146 kPa | 1503
11176 kPa | 1503.1
11211 kPa | 1503.2
11232 kPa | 1503.2
11263 kPa | 1503.4
11289 kPa | 1503.6
11324 kPa | 1503.9
11358 kPa | 1503.9
11384 kPa | 1503.9
11414 kPa | 1504.1
11455 kPa | 1504.2
11478 kPa | 1504.3
11508 kPa | 1504.4
11538 kPa | 1504.5
11565 kPa | 1504.7
11601 kPa | 1504.8
11631 kPa | 1505
11663 kPa | 1505
11698 kPa | 1505.4
11725 kPa | 1505.4
11760 kPa | 1505.6
11791 kPa | 1505.6
11822 kPa | 1505.7
11844 kPa | 1505.9
11874 kPa | 1506
11901 kPa | 1506.1
11923 kPa | 1506.3
11958 kPa | 1506.3
11993 kPa | 1506.4
12020 kPa | 1506.5
12055 kPa | 1506.7
12082 kPa | 1506.9
12816 kPa | 1509.7
12856 kPa | 1510.1
12892 kPa | 1510.2
12918 kPa | 1510.3
12955 kPa | 1510.4
12996 kPa | 1510.6
13027 kPa | 1510.6
13054 kPa | 1510.9
13090 kPa | 1510.9
13123 kPa | 1511
13165 kPa | 1511.2
13197 kPa | 1511.2
13235 kPa | 1511.5
13290 kPa | 1511.7
13323 kPa | 1511.8
13385 kPa | 1512
13417 kPa | 1512.2
13454 kPa | 1512.2
13483 kPa | 1512.4
